Measured values as given in US6515124B2, “Dehydroamino acids” (Hoffman-La Roche Inc., priority 2000, dated 2003).

Assays:
[1] = biological target: T1, LFA-1 binding to immobilized ICAM-1 (Homo sapiens, UniProt P05107+P20701); test: LFA-1/ICAM-1 Protein-Protein Assay (solid-phase ELISA); settings: 5dICAM-Ig coated plates; membrane-bound LFA-1 from transfected 293 cells
T1 construct: made in house; host or cells: transfected 293 cells (LFA-1)
Experimental: LFA-1/ICAM-1 Protein-Protein Assay
LFA-1/ICAM-1 antagonist activity, defined as the ability to block LFA-1 binding to immobilized ICAM-1, was quantitated using a solid-phase ELISA. Typically, fusion protein consisting of the entire extracellular domain of human ICAM-1 and the Fc domain of human IgG (5dICAM-Ig) was coated onto 96-well microtiter plates (0.15 μg in 100 μL PBS) overnight at 4° C. The plates were then blocked with 150 μL of 1% BSA/1 mM MnCl2/0.14 M NaCl/20 mM HEPES, pH 7.2 for 1 h at 37° C. and washed 3 times (150 μL each) with Wash Buffer (50 mM Tris, pH 7.4/100 mM NaCl/1 mM MnCl2/0.05% Tween 20). Stock solutions (100 μM in 100% DMSO) of test compounds were diluted 50 fold with 150 μL of Binding Buffer (0.05% BSA/0.05% Tween 20/1 mM MnCl2/0.14 M NaCl/20 mM HEPES, pH 7.2) plus 10% DMSO. A series of 1:4 dilutions were performed to achieve a concentration range of 0.12 nM-2 μM. Fifty μL per well of each dilution was added to the ICAM-1 coated plates, followed by 50 μL per well of membrane-bound LFA-1 (280 ng/mL in Binding Buffer) derived from transfected 293 cells. The plates were shaken vigorously for 1 min (room temperature) and gently for 2 h (37° C.). After incubation, the plates were washed 3 times (150 μL each) with Wash Buffer. Mouse anti-human integrin β2 monoclonal antibody was added (100 μL/well, 1 μg/ml in Binding Buffer) and allowed to incubate for 1 h (37° C.) with gentle agitation. The plates were then washed 3 times with Wash Buffer. HRP-conjugated goat anti-mouse IgG (100 μL/well, 1:1500 dilution in Binding Buffer) was added to each well, followed by incubation for 1 h (37° C.) and concluded by three washes (150 μL each) with Wash Buffer. TMB solution (100 μL per well) was added for color development (10 min). The reaction was stopped by the addition of 100 μL of 1M H3PO4 to each well. The plates were then read at 450 nm.

[2] = test system: T lymphocyte proliferation (murine spleen cells); test: Mixed Lymphocyte Reaction (MLR), one-way; assay type: cell-based, mice; settings: Mus musculus, T-lymphocyte, light or radiation study, 72 h, C57B1/6 spleen cells with irradiated BALB/c spleen cells; tritiated thymidine incorporation, 3 days
Text: Mixed Lymphocyte Reaction (MLR)
Admixture of murine spleen cells from two different inbred strains of mice induces proliferation of T lymphocytes. The magnitude of T cell proliferation depends on the extent of disparity in the major histocompatibility antigens between the two strains. Splenic T lymphocytes from both strains proliferate due to alloantigen recognition, a process for which the interaction of ICAM-1 on antigen-presenting cells with LFA-1 on lymphocytes is necessary. The ability of antagonists to inhibit T lymphocyte proliferation following recognition of alloantigens was assessed in a one-way MLR, where cells from one strain were irradiated to permit measurement of the proliferative response of cells from the other strain. Spleen cells were washed three times in tissue culture medium (TCM; see below). Fifty microliters of a spleen cell suspension (prepared at 10×10^6 cells/ml in TCM) obtained from C57B1/6 mice were added to an equal number of lethally-irradiated (2000 rads) spleen cells obtained from BALB/c mice in a 96-well U-bottom tissue culture plate (Costar, 3799). One hundred microliters of serial dilutions of antagonists or TCM were added to the spleen cell mixture. The total volume in each well was 200 μL. TCM was RPMI1640 containing 10% heat-inactivated fetal bovine serum, […] L-glutamine, 100 Units/ml each of penicillin and streptomycin and 5×10^−5 M 2-mercaptoethanol. Dilutions of antagonists were prepared in TCM. Plates were incubated in 5% CO2 for 3 days. On the third day, 0.5 μCi of tritiated thymidine (10 μCi/mL) was added to all the wells. Cells were harvested 6 h later on a 96-well plate harvester and the amount of tritiated thymidine incorporated was assessed in a liquid scintillation counter.

T1 sequence (P20701 26-1170): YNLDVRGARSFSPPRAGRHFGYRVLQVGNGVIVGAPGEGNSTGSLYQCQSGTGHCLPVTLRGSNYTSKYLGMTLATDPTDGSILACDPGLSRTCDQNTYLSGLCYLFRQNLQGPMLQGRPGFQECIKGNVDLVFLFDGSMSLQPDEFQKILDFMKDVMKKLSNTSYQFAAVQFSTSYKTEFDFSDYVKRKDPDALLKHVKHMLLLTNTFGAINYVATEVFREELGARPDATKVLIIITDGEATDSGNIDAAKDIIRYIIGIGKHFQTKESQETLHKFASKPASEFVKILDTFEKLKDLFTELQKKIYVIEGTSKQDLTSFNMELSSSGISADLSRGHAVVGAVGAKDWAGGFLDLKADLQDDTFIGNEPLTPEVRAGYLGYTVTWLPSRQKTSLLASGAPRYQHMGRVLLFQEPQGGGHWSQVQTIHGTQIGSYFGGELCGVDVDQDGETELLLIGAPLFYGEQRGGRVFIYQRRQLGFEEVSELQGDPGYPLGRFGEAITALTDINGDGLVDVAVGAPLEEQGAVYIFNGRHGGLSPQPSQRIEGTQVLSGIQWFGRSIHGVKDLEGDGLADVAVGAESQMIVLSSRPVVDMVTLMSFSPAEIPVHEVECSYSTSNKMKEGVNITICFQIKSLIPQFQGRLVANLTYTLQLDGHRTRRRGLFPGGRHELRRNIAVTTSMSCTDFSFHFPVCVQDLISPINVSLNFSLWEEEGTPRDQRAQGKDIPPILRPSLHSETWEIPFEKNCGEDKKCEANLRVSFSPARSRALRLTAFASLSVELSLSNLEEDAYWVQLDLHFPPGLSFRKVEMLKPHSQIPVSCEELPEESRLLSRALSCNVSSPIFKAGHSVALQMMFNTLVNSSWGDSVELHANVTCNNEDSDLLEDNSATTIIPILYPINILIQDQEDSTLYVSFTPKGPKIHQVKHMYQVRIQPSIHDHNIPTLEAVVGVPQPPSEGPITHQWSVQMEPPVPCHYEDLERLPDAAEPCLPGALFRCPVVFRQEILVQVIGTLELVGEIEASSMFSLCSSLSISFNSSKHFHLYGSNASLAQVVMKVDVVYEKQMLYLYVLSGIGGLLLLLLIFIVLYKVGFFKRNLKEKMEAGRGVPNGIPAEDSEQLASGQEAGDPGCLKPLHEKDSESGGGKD
T1 sequence (P05107 23-769): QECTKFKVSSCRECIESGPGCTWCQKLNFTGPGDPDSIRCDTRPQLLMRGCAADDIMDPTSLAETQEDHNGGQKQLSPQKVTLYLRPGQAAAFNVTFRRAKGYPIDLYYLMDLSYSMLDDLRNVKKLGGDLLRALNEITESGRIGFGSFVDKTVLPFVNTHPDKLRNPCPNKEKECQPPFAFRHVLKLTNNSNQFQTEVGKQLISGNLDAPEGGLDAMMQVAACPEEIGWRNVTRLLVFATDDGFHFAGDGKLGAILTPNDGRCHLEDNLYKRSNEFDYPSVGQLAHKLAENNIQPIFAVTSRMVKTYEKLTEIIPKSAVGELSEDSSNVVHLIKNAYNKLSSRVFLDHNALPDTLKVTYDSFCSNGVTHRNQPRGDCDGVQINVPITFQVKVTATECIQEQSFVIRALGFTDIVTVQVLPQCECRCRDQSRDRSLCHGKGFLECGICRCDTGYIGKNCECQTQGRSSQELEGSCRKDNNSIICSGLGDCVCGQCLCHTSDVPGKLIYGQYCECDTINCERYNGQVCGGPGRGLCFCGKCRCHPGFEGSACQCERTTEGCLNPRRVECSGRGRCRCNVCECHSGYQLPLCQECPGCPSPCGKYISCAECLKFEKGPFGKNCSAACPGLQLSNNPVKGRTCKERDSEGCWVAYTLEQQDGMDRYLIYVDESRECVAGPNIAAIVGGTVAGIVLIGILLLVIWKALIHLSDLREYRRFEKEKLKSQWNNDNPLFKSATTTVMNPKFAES

For `CCc1nc(C)c(/C=C(\NC(=O)c2ccc(C(=O)NCc3cccc(O)c3)cc2Cl)C(=O)O)s1` [Example 304, (Z)-2-[[2-Chloro-4-[[(3-hydroxybenzyl)amino]carbonyl]benzoyl]amino]-3-(2-ethyl-4-methylthiazole-5-yl)propenoic Acid], the IC50 [1] was 3 nM, the IC50 [2] was 2100 nM and the melting point was greater than 200 °C.

With `O=C(O)/C(=C/c1cnc2ccccc2c1)NC(=O)c1ccc(C(=O)NCc2cccc3[nH]ccc23)cc1Br` [Example 255] the IC50 [1] was 5.82 nM and the IC50 [2] was 14800 nM.

`O=C(O)/C(=C/c1nccs1)NC(=O)c1ccc(C(=O)NCc2cccc(O)c2)cc1Br` [Example 268, (Z)-2-[[2-Bromo-4-[[(3-hydroxybenzyl)amino]carbonyl]benzoyl]amino]-3-(thiazol-2-yl)propenoic Acid] showed an IC50 [1] of 10.6 nM and an IC50 [2] of 9000 nM.

`O=C(O)/C(=C/c1ccc2nonc2c1)NC(=O)c1ccc(C(=O)NCc2cccc(O)c2)cc1Cl` [Example 246] gave an IC50 [1] of 2.4 nM and an IC50 [2] of 7850 nM.

Work on `C[C@@H](NC(=O)c1cc(Cl)c(C(=O)N/C(=C\c2cnc3ccccc3c2)C(=O)O)c(Cl)c1)c1cccc2ccccc12` [Example 252] yielded an IC50 [1] of 2.68 nM and an IC50 [2] of 2500 nM.

Work on `O=C(O)/C(=C/c1ccc2nsnc2c1)NC(=O)c1ccc(C(=O)NCc2cccc(O)c2)cc1Cl` [Example 247] yielded an IC50 [1] of 2 nM and an IC50 [2] of 5150 nM.

With `O=C(O)/C(=C/c1ccc2ccccc2c1)NC(=O)c1ccc(C(=O)NCc2cccc3[nH]ccc23)cc1Cl` [Example 307] the IC50 [1] was 18.6 nM and the IC50 [2] was 27000 nM.

In the case of `O=C(O)/C(=C/c1cccnc1)NC(=O)c1ccc(C(=O)NCc2cccc(O)c2)cc1Br` [Example 279], the IC50 [1] is reported as 6.2 nM and the IC50 [2] is reported as 1300 nM.

`Cn1ccc2ccc(/C=C(\NC(=O)c3ccc(C(=O)NCc4cccc(O)c4)cc3Cl)C(=O)O)cc21` [Example 305] gave an IC50 [1] of 4.13 nM and an IC50 [2] of 7250 nM.

`Cc1cc(C(=O)NCc2cccc(O)c2)cc(Cl)c1C(=O)N/C(=C\c1ccccc1)C(=O)O` [Example 293, (Z)-2-[[2-Chloro-4-[[(3-hydroxybenzyl)amino]carbonyl]-6-methylbenzoyl]amino]-3-phenylpropenoic Acid] showed an IC50 [1] of 1.29 nM and an IC50 [2] of 7100 nM.

For `Cc1nc(/C=C(\NC(=O)c2ccc(C(=O)NCc3cccc(O)c3)cc2Br)C(=O)O)cs1` [Example 235, (Z)-2-[[2-Bromo-4-[[(3-hydroxybenzyl)amino]carbonyl]benzoyl]amino]-3-(2-methylthiazol-4-yl)propenoic Acid], the IC50 [1] was 42.9 nM and the IC50 [2] was 13500 nM.

`O=C(O)/C(=C/c1cnc[nH]1)NC(=O)c1ccc(C(=O)NCc2cccc(O)c2)cc1Br` [Example 278] gave an IC50 [1] of 2 nM and an IC50 [2] of 1450 nM.

In the case of `Cc1cc(C(=O)NCc2cc(F)cc(F)c2)cc(C)c1C(=O)N/C(=C\c1cnc2ccccc2c1)C(=O)O` [Example 253], the IC50 [1] is reported as 6.54 nM and the IC50 [2] is reported as 8100 nM.

Work on `Nc1ncc(/C=C(\NC(=O)c2ccc(C(=O)NCc3cccc(O)c3)cc2Cl)C(=O)O)s1` [Example 287] yielded an IC50 [1] of 0.65 nM and an IC50 [2] of 1400 nM.

Work on `Cc1nc(C)c(/C=C(\NC(=O)c2c(C)cc(C(=O)NCc3cccc(O)c3)cc2C)C(=O)O)s1` [Example 248] yielded an IC50 [1] of 3.96 nM and an IC50 [2] of 24000 nM.

With `Cc1cc(C(=O)N[C@H](C)c2cccc3ccccc23)cc(C)c1C(=O)N/C(=C\c1[nH]cnc1C)C(=O)O` [Example 240] the IC50 [1] was 4.78 nM and the IC50 [2] was 3470 nM.

Work on `Cc1cc(C(=O)NCc2cccc(O)c2)ccc1C(=O)N/C(=C\c1ccccc1)C(=O)O` [Example 311] yielded an IC50 [1] of 11.8 nM and an IC50 [2] of 10500 nM.

With `Cc1nc(C)c(/C=C(\NC(=O)c2c(C)cc(C(=O)N[C@H](C)c3cccc4ccccc34)cc2C)C(=O)O)s1` [Example 251] the IC50 [1] was 20.5 nM and the IC50 [2] was 20000 nM.
